From ChEMBL document CHEMBL5303573, “Mapping human microbiome drug metabolism by gut bacteria and their genes” (Nature, 2019)

Assay: The drug is tested on Bifidobacterium longum subsp. Infantis strain: CCUG52486 for biotransformation. The drug concentrations were measured before and after a 12-h incubation by liquid-chromatography-coupled mass spectrometry (LC–MS)
Conditions: 2 µM

Q: Which “Bacterial Biotransformation” value does the source give for c1ccc([C@H]2CN3CCSC3=N2)cc1 [LEVAMISOLE] here?
A: Compound NOT metabolized

Q: With COc1cc2c(c(OC)c1OC)-c1ccc(OC)c(=O)cc1[C@@H](NC(C)=O)CC2 [COLCHICINE] as the molecule, how does the “Bacterial Biotransformation” value read?
A: Compound NOT metabolized

Q: For COc1cc(NC(C)CCCN)c2ncccc2c1.O=P(O)(O)O.O=P(O)(O)O (stereo not given) [PRIMAQUINE PHOSPHATE], which “Bacterial Biotransformation” value is on record?
A: Compound metabolized

Assay: The drug is tested on Collinsella aerofaciens strain: ATCC25986 for biotransformation. The drug concentrations were measured before and after a 12-h incubation by liquid-chromatography-coupled mass spectrometry (LC–MS)
Conditions: 2 µM

Q: Which “Bacterial Biotransformation” value does the source give for C=CCc1ccccc1OCC(O)CNC(C)C (stereo not given) [ALPRENOLOL] here?
A: Compound NOT metabolized

Q: For c1ccc([C@H]2CN3CCSC3=N2)cc1 [LEVAMISOLE], which “Bacterial Biotransformation” value is on record?
A: Compound metabolized

Q: For COc1cc2c(c(OC)c1OC)-c1ccc(OC)c(=O)cc1[C@@H](NC(C)=O)CC2 [COLCHICINE], which “Bacterial Biotransformation” value is on record?
A: Compound NOT metabolized

Q: With COc1cc(NC(C)CCCN)c2ncccc2c1.O=P(O)(O)O.O=P(O)(O)O (stereo not given) [PRIMAQUINE PHOSPHATE] as the molecule, how does the “Bacterial Biotransformation” value read?
A: Compound metabolized

Assay: The drug is tested on Bacteroides caccae strain: ATCC43185 for biotransformation. The drug concentrations were measured before and after a 12-h incubation by liquid-chromatography-coupled mass spectrometry (LC–MS)
Conditions: 2 µM

Q: For C=CCc1ccccc1OCC(O)CNC(C)C (stereo not given) [ALPRENOLOL], which “Bacterial Biotransformation” value is on record?
A: Compound NOT metabolized

Q: For c1ccc([C@H]2CN3CCSC3=N2)cc1 [LEVAMISOLE], which “Bacterial Biotransformation” value is on record?
A: Compound metabolized

Q: For COc1cc(NC(C)CCCN)c2ncccc2c1.O=P(O)(O)O.O=P(O)(O)O (stereo not given) [PRIMAQUINE PHOSPHATE], which “Bacterial Biotransformation” value is on record?
A: Compound NOT metabolized

Assay: The drug is tested on Bacteroides finegoldii strain: DSM17565 for biotransformation. The drug concentrations were measured before and after a 12-h incubation by liquid-chromatography-coupled mass spectrometry (LC–MS)
Conditions: 2 µM

Q: Which “Bacterial Biotransformation” value does the source give for C=CCc1ccccc1OCC(O)CNC(C)C (stereo not given) [ALPRENOLOL] here?
A: Compound NOT metabolized

Q: Which “Bacterial Biotransformation” value does the source give for c1ccc([C@H]2CN3CCSC3=N2)cc1 [LEVAMISOLE] here?
A: Compound NOT metabolized

Q: Which “Bacterial Biotransformation” value does the source give for COc1cc(NC(C)CCCN)c2ncccc2c1.O=P(O)(O)O.O=P(O)(O)O (stereo not given) [PRIMAQUINE PHOSPHATE] here?
A: Compound metabolized

Assay: The drug is tested on Bacteroides fragilis strain: HMW615 for biotransformation. The drug concentrations were measured before and after a 12-h incubation by liquid-chromatography-coupled mass spectrometry (LC–MS)
Conditions: 2 µM

Q: For COc1cc(NC(C)CCCN)c2ncccc2c1.O=P(O)(O)O.O=P(O)(O)O (stereo not given) [PRIMAQUINE PHOSPHATE], which “Bacterial Biotransformation” value is on record?
A: Compound NOT metabolized

Assay: The drug is tested on Bacteroides fragilis strain: ATCC43859 for biotransformation. The drug concentrations were measured before and after a 12-h incubation by liquid-chromatography-coupled mass spectrometry (LC–MS)
Conditions: 2 µM

Q: Which “Bacterial Biotransformation” value does the source give for c1ccc([C@H]2CN3CCSC3=N2)cc1 [LEVAMISOLE] here?
A: Compound metabolized

Q: With COc1cc2c(c(OC)c1OC)-c1ccc(OC)c(=O)cc1[C@@H](NC(C)=O)CC2 [COLCHICINE] as the molecule, how does the “Bacterial Biotransformation” value read?
A: Compound metabolized

Assay: The drug is tested on Bacteroides xylanisolvens strain: DSM18836 for biotransformation. The drug concentrations were measured before and after a 12-h incubation by liquid-chromatography-coupled mass spectrometry (LC–MS)
Conditions: 2 µM

Q: For C=CCc1ccccc1OCC(O)CNC(C)C (stereo not given) [ALPRENOLOL], which “Bacterial Biotransformation” value is on record?
A: Compound NOT metabolized

Q: Which “Bacterial Biotransformation” value does the source give for c1ccc([C@H]2CN3CCSC3=N2)cc1 [LEVAMISOLE] here?
A: Compound metabolized

Q: With COc1cc(NC(C)CCCN)c2ncccc2c1.O=P(O)(O)O.O=P(O)(O)O (stereo not given) [PRIMAQUINE PHOSPHATE] as the molecule, how does the “Bacterial Biotransformation” value read?
A: Compound metabolized

Assay: The drug is tested on Odoribacter splanchnicus strain: fecal isolate for biotransformation. The drug concentrations were measured before and after a 12-h incubation by liquid-chromatography-coupled mass spectrometry (LC–MS)
Conditions: 2 µM

Q: For C=CCc1ccccc1OCC(O)CNC(C)C (stereo not given) [ALPRENOLOL], which “Bacterial Biotransformation” value is on record?
A: Compound NOT metabolized

Q: Which “Bacterial Biotransformation” value does the source give for c1ccc([C@H]2CN3CCSC3=N2)cc1 [LEVAMISOLE] here?
A: Compound metabolized

Q: For COc1cc2c(c(OC)c1OC)-c1ccc(OC)c(=O)cc1[C@@H](NC(C)=O)CC2 [COLCHICINE], which “Bacterial Biotransformation” value is on record?
A: Compound metabolized

Assay: The drug is tested on Clostridium scindens strain: ATCC35704 for biotransformation. The drug concentrations were measured before and after a 12-h incubation by liquid-chromatography-coupled mass spectrometry (LC–MS)
Conditions: 2 µM

Q: Which “Bacterial Biotransformation” value does the source give for C=CCc1ccccc1OCC(O)CNC(C)C (stereo not given) [ALPRENOLOL] here?
A: Compound NOT metabolized

Q: Which “Bacterial Biotransformation” value does the source give for c1ccc([C@H]2CN3CCSC3=N2)cc1 [LEVAMISOLE] here?
A: Compound metabolized

Q: Which “Bacterial Biotransformation” value does the source give for COc1cc2c(c(OC)c1OC)-c1ccc(OC)c(=O)cc1[C@@H](NC(C)=O)CC2 [COLCHICINE] here?
A: Compound NOT metabolized

Assay: The drug is tested on Clostridium sporogenes strain: ATCC15579 for biotransformation. The drug concentrations were measured before and after a 12-h incubation by liquid-chromatography-coupled mass spectrometry (LC–MS)
Conditions: 2 µM

Q: For C=CCc1ccccc1OCC(O)CNC(C)C (stereo not given) [ALPRENOLOL], which “Bacterial Biotransformation” value is on record?
A: Compound NOT metabolized

Q: For c1ccc([C@H]2CN3CCSC3=N2)cc1 [LEVAMISOLE], which “Bacterial Biotransformation” value is on record?
A: Compound metabolized

Q: Which “Bacterial Biotransformation” value does the source give for COc1cc2c(c(OC)c1OC)-c1ccc(OC)c(=O)cc1[C@@H](NC(C)=O)CC2 [COLCHICINE] here?
A: Compound metabolized

Q: With COc1cc(NC(C)CCCN)c2ncccc2c1.O=P(O)(O)O.O=P(O)(O)O (stereo not given) [PRIMAQUINE PHOSPHATE] as the molecule, how does the “Bacterial Biotransformation” value read?
A: Compound NOT metabolized

Assay: The drug is tested on Coprococcus comes strain: ATCC27758 for biotransformation. The drug concentrations were measured before and after a 12-h incubation by liquid-chromatography-coupled mass spectrometry (LC–MS)
Type: ADME
Parameters: dose 2 uM, timepoint 0 vs 12 hours
Conditions: 2 µM

Q: With C=CCc1ccccc1OCC(O)CNC(C)C (stereo not given) [ALPRENOLOL] as the molecule, how does the “Bacterial Biotransformation” value read?
A: Compound NOT metabolized

Q: For c1ccc([C@H]2CN3CCSC3=N2)cc1 [LEVAMISOLE], which “Bacterial Biotransformation” value is on record?
A: Compound metabolized

Q: For COc1cc2c(c(OC)c1OC)-c1ccc(OC)c(=O)cc1[C@@H](NC(C)=O)CC2 [COLCHICINE], which “Bacterial Biotransformation” value is on record?
A: Compound NOT metabolized

Q: Which “Bacterial Biotransformation” value does the source give for COc1cc(NC(C)CCCN)c2ncccc2c1.O=P(O)(O)O.O=P(O)(O)O (stereo not given) [PRIMAQUINE PHOSPHATE] here?
A: Compound NOT metabolized

Assay: The drug is tested on Eubacterium hallii strain: DSM3353 for biotransformation. The drug concentrations were measured before and after a 12-h incubation by liquid-chromatography-coupled mass spectrometry (LC–MS)
Conditions: anaerobutyricum hallii, 2 µM

Q: For C=CCc1ccccc1OCC(O)CNC(C)C (stereo not given) [ALPRENOLOL], which “Bacterial Biotransformation” value is on record?
A: Compound NOT metabolized

Q: Which “Bacterial Biotransformation” value does the source give for c1ccc([C@H]2CN3CCSC3=N2)cc1 [LEVAMISOLE] here?
A: Compound NOT metabolized

Q: With COc1cc2c(c(OC)c1OC)-c1ccc(OC)c(=O)cc1[C@@H](NC(C)=O)CC2 [COLCHICINE] as the molecule, how does the “Bacterial Biotransformation” value read?
A: Compound NOT metabolized

Q: For COc1cc(NC(C)CCCN)c2ncccc2c1.O=P(O)(O)O.O=P(O)(O)O (stereo not given) [PRIMAQUINE PHOSPHATE], which “Bacterial Biotransformation” value is on record?
A: Compound NOT metabolized

Assay: The drug is tested on Ruminococcus lactaris strain: ATCC29176 for biotransformation. The drug concentrations were measured before and after a 12-h incubation by liquid-chromatography-coupled mass spectrometry (LC–MS)
Conditions: 2 µM

Q: Which “Bacterial Biotransformation” value does the source give for C=CCc1ccccc1OCC(O)CNC(C)C (stereo not given) [ALPRENOLOL] here?
A: Compound NOT metabolized

Q: For c1ccc([C@H]2CN3CCSC3=N2)cc1 [LEVAMISOLE], which “Bacterial Biotransformation” value is on record?
A: Compound NOT metabolized

Q: Which “Bacterial Biotransformation” value does the source give for COc1cc2c(c(OC)c1OC)-c1ccc(OC)c(=O)cc1[C@@H](NC(C)=O)CC2 [COLCHICINE] here?
A: Compound NOT metabolized

Assay: The drug is tested on Providencia rettgeri strain: DSM1131 for biotransformation. The drug concentrations were measured before and after a 12-h incubation by liquid-chromatography-coupled mass spectrometry (LC–MS)
Type: ADME
Parameters: dose 2 uM, timepoint 0 vs 12 hours
Conditions: 2 µM

Q: With C=CCc1ccccc1OCC(O)CNC(C)C (stereo not given) [ALPRENOLOL] as the molecule, how does the “Bacterial Biotransformation” value read?
A: Compound NOT metabolized

Q: Which “Bacterial Biotransformation” value does the source give for c1ccc([C@H]2CN3CCSC3=N2)cc1 [LEVAMISOLE] here?
A: Compound NOT metabolized

Q: For COc1cc2c(c(OC)c1OC)-c1ccc(OC)c(=O)cc1[C@@H](NC(C)=O)CC2 [COLCHICINE], which “Bacterial Biotransformation” value is on record?
A: Compound NOT metabolized

Q: For COc1cc(NC(C)CCCN)c2ncccc2c1.O=P(O)(O)O.O=P(O)(O)O (stereo not given) [PRIMAQUINE PHOSPHATE], which “Bacterial Biotransformation” value is on record?
A: Compound NOT metabolized

Conditions: bacteroides fragilis, 12 h, 2 µM
Description: The drug is tested on Bacteroides fragilis strain: 3397 (T10) for biotransformation. The drug concentrations were measured before and after a 12-h incubation by liquid-chromatography-coupled mass spectrometry (LC–MS)

Q: Which “Bacterial Biotransformation” value does the source give for C=CCc1ccccc1OCC(O)CNC(C)C (stereo not given) [ALPRENOLOL] here?
A: Compound NOT metabolized

Q: Which “Bacterial Biotransformation” value does the source give for c1ccc([C@H]2CN3CCSC3=N2)cc1 [LEVAMISOLE] here?
A: Compound metabolized

Q: Which “Bacterial Biotransformation” value does the source give for COc1cc2c(c(OC)c1OC)-c1ccc(OC)c(=O)cc1[C@@H](NC(C)=O)CC2 [COLCHICINE] here?
A: Compound metabolized

Q: With COc1cc(NC(C)CCCN)c2ncccc2c1.O=P(O)(O)O.O=P(O)(O)O (stereo not given) [PRIMAQUINE PHOSPHATE] as the molecule, how does the “Bacterial Biotransformation” value read?
A: Compound metabolized

Conditions: bacteroides intestinalis, 12 h, 2 µM
Description: The drug is tested on Bacteroides intestinalis strain: DSM17393 for biotransformation. The drug concentrations were measured before and after a 12-h incubation by liquid-chromatography-coupled mass spectrometry (LC–MS)

Q: Which “Bacterial Biotransformation” value does the source give for C=CCc1ccccc1OCC(O)CNC(C)C (stereo not given) [ALPRENOLOL] here?
A: Compound NOT metabolized

Q: For c1ccc([C@H]2CN3CCSC3=N2)cc1 [LEVAMISOLE], which “Bacterial Biotransformation” value is on record?
A: Compound metabolized

Q: Which “Bacterial Biotransformation” value does the source give for COc1cc2c(c(OC)c1OC)-c1ccc(OC)c(=O)cc1[C@@H](NC(C)=O)CC2 [COLCHICINE] here?
A: Compound metabolized

Conditions: bacteroides thetaiotaomicron, 12 h, 2 µM
Description: The drug is tested on Bacteroides thetaiotaomicron strain: 3731 for biotransformation. The drug concentrations were measured before and after a 12-h incubation by liquid-chromatography-coupled mass spectrometry (LC–MS)

Q: With c1ccc([C@H]2CN3CCSC3=N2)cc1 [LEVAMISOLE] as the molecule, how does the “Bacterial Biotransformation” value read?
A: Compound NOT metabolized

Q: Which “Bacterial Biotransformation” value does the source give for COc1cc2c(c(OC)c1OC)-c1ccc(OC)c(=O)cc1[C@@H](NC(C)=O)CC2 [COLCHICINE] here?
A: Compound metabolized

Conditions: parabacteroides distasonis, 12 h, 2 µM
Description: The drug is tested on Parabacteroides distasonis strain: ATCC8503 for biotransformation. The drug concentrations were measured before and after a 12-h incubation by liquid-chromatography-coupled mass spectrometry (LC–MS)

Q: With c1ccc([C@H]2CN3CCSC3=N2)cc1 [LEVAMISOLE] as the molecule, how does the “Bacterial Biotransformation” value read?
A: Compound metabolized

Q: Which “Bacterial Biotransformation” value does the source give for COc1cc2c(c(OC)c1OC)-c1ccc(OC)c(=O)cc1[C@@H](NC(C)=O)CC2 [COLCHICINE] here?
A: Compound metabolized

Q: With COc1cc(NC(C)CCCN)c2ncccc2c1.O=P(O)(O)O.O=P(O)(O)O (stereo not given) [PRIMAQUINE PHOSPHATE] as the molecule, how does the “Bacterial Biotransformation” value read?
A: Compound metabolized

Conditions: anaerostipes sp., 12 h, 2 µM
Description: The drug is tested on Anaerostipes sp. strain: fecal isolate for biotransformation. The drug concentrations were measured before and after a 12-h incubation by liquid-chromatography-coupled mass spectrometry (LC–MS)

Q: With C=CCc1ccccc1OCC(O)CNC(C)C (stereo not given) [ALPRENOLOL] as the molecule, how does the “Bacterial Biotransformation” value read?
A: Compound NOT metabolized

Q: For c1ccc([C@H]2CN3CCSC3=N2)cc1 [LEVAMISOLE], which “Bacterial Biotransformation” value is on record?
A: Compound NOT metabolized

Q: Which “Bacterial Biotransformation” value does the source give for COc1cc2c(c(OC)c1OC)-c1ccc(OC)c(=O)cc1[C@@H](NC(C)=O)CC2 [COLCHICINE] here?
A: Compound metabolized

Q: For COc1cc(NC(C)CCCN)c2ncccc2c1.O=P(O)(O)O.O=P(O)(O)O (stereo not given) [PRIMAQUINE PHOSPHATE], which “Bacterial Biotransformation” value is on record?
A: Compound NOT metabolized
